Source: patent US10689384B2, “Imidazo[1,2-a]quinoxalines and derivatives thereof for the treatment of cancer” (Universite de Montpellier, priority 2014, dated 2020)
One block for each molecule: values may come before it.

Legend:
[1] = test system: human cancer cell lines; assay: In vitro cytotoxicity study, Summarized results 2 (cell line not given); format: cell-based; settings: Table 4, Summarized results 2, cell line not stated
Protocol: (§1) The goal of this protocol is to study the effects of the compounds on the proliferation of various human cancer cell lines in order to evaluate the EC50 and their activity in cellulo.
(§2) The cells are seeded the day before treatment in 96 well plates. Each compound concentration is tested in triplicate. A 96 well plate can contain 3 compounds.
(§3) Stock solutions of the tested compounds are prepared at 10 mM in 100% DMSO and stored at […].
(§4) The analysis is carried out by using the GraphPad PRISM 5.0 software.
(§5) Day 1: the cells are seeded one day before treatment with the compounds in 96 well plates. Cell suspensions for each cancer cell line are prepared with a specific density in a specific culture medium (see preceding table). Next, 100 µL of cell suspension is distributed per well (1×96 well plate per cell line).
(§6) Day 2: 24 hours later, the […] compounds or controls (DMSO) are added to the cells ([…] of a compound solution in its specific medium with a final DMSO concentration of 0.15%).
(§7) Each compound concentration is tested in triplicate (6 concentrations between 10^−9 M and 10^−5 M per compound). The cells are incubated at 37° C. for 72 hours with no new treatment.
(§8) Day 5: 15 minutes before incubation of the cells with MTT (3-[4,5-dimethylthiazol-2-yl]-2,5-diphenyltetrazolium bromide), 10% SDS is added to the control wells to obtain a final concentration of 1%. The positive control of inhibition of proliferation is 1% SDS.
(§9) Once the medium is removed, 100 µL of a solution of MTT in fresh medium is added to each well (10 μL of 10×MTT solution at 5 mg/mL in PBS +[…] of fresh medium) and the plates are incubated for 4 hours at 37° C.
(§10) The MTT reaction is quenched and the medium is homogenized by addition of […] of 10% SDS/0.01 M HCl solution placed in each well. The medium is incubated for 2 hours at 37° C. before measuring its absorbance. Absorbance is measured at 570 nm.

[2] = test system: A2058; assay: In vitro cytotoxicity study, inhibition of cell growth (MTT); format: cell-based; settings: Homo sapiens, A2058, melanoma, 72 hours
Protocol: as §1, §2
(§11) Cell suspensions for each cancer cell line are prepared in culture medium with a specific density of the specific cell (see the following table). Then, 100 µL of cell suspension is spread per well (plate per one cell line).
as §3, §4, §5, §6, §7, §8, §9, §10

[3] = test system: A375; assay: as above; format: cell-based; settings: Homo sapiens, A-375, A375, melanoma, 72 hours
Protocol: as §1, §2, §11, §3, §4, §5, §6, §7, §8, §9, §10

[4] = test system: AsPC-1; assay: as above; format: cell-based; settings: Homo sapiens, ASPC1, AsPC-1, pancreas, 72 hours
Protocol: as §1, §2, §11, §3, §4, §5, §6, §7, §8, §9, §10

[5] = test system: BxPC3; assay: as above; format: cell-based; settings: Homo sapiens, BXPC-3, BxPC3, pancreas, 72 hours
Protocol: as §1, §2, §11, §3, §4, §5, §6, §7, §8, §9, §10

[6] = test system: CFPAC-1; assay: as above; format: cell-based; settings: Homo sapiens, CFPAC-1, pancreas, 72 hours
Protocol: as §1, §2, §11, §3, §4, §5, §6, §7, §8, §9, §10

[7] = test system: COLO-205; assay: as above; format: cell-based; settings: Homo sapiens, COLO-205, colon, 72 hours
Protocol: as §1, §2, §11, §3, §4, §5, §6, §7, §8, §9, §10

[8] = test system: Calu-1; assay: as above; format: cell-based; settings: Homo sapiens, Calu-1, lung, 72 hours
Protocol: as §1, §2, §11, §3, §4, §5, §6, §7, §8, §9, §10

[9] = test system: Capan-1; assay: as above; format: cell-based; settings: Homo sapiens, Capan-1, pancreas, 72 hours
Protocol: as §1, §2, §11, §3, §4, §5, §6, §7, §8, §9, §10

[10] = test system: HepG2; assay: as above; format: cell-based; settings: Homo sapiens, HepG2, liver, 72 hours
Protocol: as §1, §2, §11, §3, §4, §5, §6, §7, §8, §9, §10

[11] = test system: IPC298; assay: as above; format: cell-based; settings: Homo sapiens, IPC-298, IPC298, melanoma, 72 hours
Protocol: as §1, §2, §11, §3, §4, §5, §6, §7, §8, §9, §10

[12] = test system: LoVo; assay: as above; format: cell-based; settings: Homo sapiens, colon, 72 hours
Protocol: as §1, §2, §11, §3, §4, §5, §6, §7, §8, §9, §10

[13] = test system: MEWO; assay: as above; format: cell-based; settings: Homo sapiens, melanoma, 72 hours
Protocol: as §1, §2, §11, §3, §4, §5, §6, §7, §8, §9, §10

[14] = test system: PC-3; assay: as above; format: cell-based; settings: Homo sapiens, PC-3, prostate, 72 hours
Protocol: as §1, §2, §11, §3, §4, §5, §6, §7, §8, §9, §10

[15] = test system: PF382; assay: as above; format: cell-based; settings: Homo sapiens, PF-382, PF382, lymphoid, 72 hours
Protocol: as §1, §2, §11, §3, §4, §5, §6, §7, §8, §9, §10

[16] = test system: T-47D; assay: as above; format: cell-based; settings: Homo sapiens, T47D, breast, 72 hours
Protocol: as §1, §2, §11, §3, §4, §5, §6, §7, §8, §9, §10

[17] = biological target: T1, purified tubulin (Sus scrofa, UniProt P02550+P02554); assay: Effect on the polymerization of purified tubulin (turbidimetry at 350 nm); format: biochemical, pig; settings: 2.4 μM tubulin, 37° C.
T1 construct: Tubulin is prepared from pig brain; from tissue; host or cells: pig brain
Protocol: FIG. 1. Study of the innovative effect of compounds of the selection patent on the polymerization of purified tubulin. This is a comparative study of the effect on the polymerization of purified tubulin by compounds of the selection patent compared to that of the compounds of the patent FR 2,921,927. Polymerized tubulin absorbs at 350 nm.
Tubulin is prepared from pig brain according to the purification process described by Williams and Lee (1982). Tubulin polymerization is monitored by turbidimetry at 350 nm with an MC2 spectrophotometer (Safas, Monaco) equipped with a heat-jacketed cuvette holder. The reaction mixture was prepared at 0° C., and contains PEM buffer, 25% glycerol (v/v), 1 mM GTP, and 2.4 μM tubulin. The GTP and the tubulin are added at the last minute. […] The same volume of DMSO alone was used as a negative control. The final volume of the sample is […]. The reaction is initiated by placing the cuvette in the cell compartment of the spectrophotometer thermostated at 37° C. Ice is added 45 minutes later to launch depolymerization in order to confirm the specificity of the signal.

T1 sequence (P02550 whole entry): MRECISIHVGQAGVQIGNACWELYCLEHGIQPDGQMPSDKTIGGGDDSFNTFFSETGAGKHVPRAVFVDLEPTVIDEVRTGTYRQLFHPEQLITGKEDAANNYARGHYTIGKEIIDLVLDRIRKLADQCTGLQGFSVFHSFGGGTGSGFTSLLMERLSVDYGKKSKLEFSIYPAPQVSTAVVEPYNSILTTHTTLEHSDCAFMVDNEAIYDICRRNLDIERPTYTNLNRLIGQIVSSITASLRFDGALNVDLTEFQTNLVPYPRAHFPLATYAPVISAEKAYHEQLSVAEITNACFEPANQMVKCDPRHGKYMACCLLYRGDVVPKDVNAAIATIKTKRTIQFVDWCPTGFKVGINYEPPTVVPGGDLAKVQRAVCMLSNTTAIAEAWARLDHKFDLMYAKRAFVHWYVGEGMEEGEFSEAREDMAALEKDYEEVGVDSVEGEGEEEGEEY
T1 sequence (P02554 whole entry): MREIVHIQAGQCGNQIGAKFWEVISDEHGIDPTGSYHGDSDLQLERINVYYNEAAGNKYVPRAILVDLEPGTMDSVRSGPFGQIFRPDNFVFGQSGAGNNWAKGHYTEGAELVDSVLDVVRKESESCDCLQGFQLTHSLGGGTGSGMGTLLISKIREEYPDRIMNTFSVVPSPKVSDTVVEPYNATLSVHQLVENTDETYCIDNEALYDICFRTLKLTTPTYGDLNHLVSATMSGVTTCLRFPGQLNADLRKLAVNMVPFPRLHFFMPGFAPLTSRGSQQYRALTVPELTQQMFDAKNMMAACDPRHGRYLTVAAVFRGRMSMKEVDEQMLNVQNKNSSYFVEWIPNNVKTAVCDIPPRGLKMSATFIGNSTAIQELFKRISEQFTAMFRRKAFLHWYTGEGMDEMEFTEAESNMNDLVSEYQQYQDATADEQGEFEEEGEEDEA

SMILES: COc1ccc(-c2cnc3c(NC(CC(C)C)C(=O)OC(C)(C)C)nc4ccccc4n23)cc1OC (centres unmarked) [EAPB 02222]
IC50 ([1]; Homo sapiens): > 10000 nM

Effect on polymerization of purified tubulin (absorbance level at 350 nm) [17]: leaves it unchanged
SMILES: CNc1nc2ccccc2n2c(-c3ccc(O)c(O)c3)cnc12 [EAPB 02303, 1-(3,4-Dihydroxyphenyl)-N-methylimidazo[1,2-a]quinoxalin-4-amine]
EC50 [2]: 4 nM | EC50 [3]: 10 nM | EC50 [4]: 957 nM | EC50 [5]: 11 nM | EC50 [6]: 12 nM | EC50 [7]: 38 nM | EC50 [8]: 4 nM | EC50 [9]: 154 nM | EC50 [10]: 247 nM | EC50 [11]: 40 nM | EC50 [12]: 45 nM | EC50 [13]: 3 nM | EC50 [14]: 12 nM | EC50 [15]: 7 nM | EC50 [16]: 13 nM | IC50 ([1]; Homo sapiens): < 3 nM

SMILES: CNc1nc2cc(C(F)(F)F)ccc2n2c(-c3ccc(O)c(O)c3)cnc12 [EAPB 02303-7a, 4-(4-(Methylamino)-7-(trifluoromethyl)imidazo[1,2-a]quinoxalin-1-yl)benzene-1,2-diol]
IC50 ([1]; Homo sapiens): 6910 nM

SMILES: CNc1nc2cc(OC(F)(F)F)ccc2n2c(-c3ccc(O)c(O)c3)cnc12 [EAPB 02303-7b, 4-(4-(Methylamino)-7-(trifluoromethoxy)imidazo[1,2-a]quinoxalin-1-yl)benzene-1,2-diol]
IC50 ([1]; Homo sapiens): 199 nM

SMILES: CNc1nc2cc(C#N)ccc2n2c(-c3ccc(O)c(O)c3)cnc12 [EAPB 02303-7c]
IC50 ([1]; Homo sapiens): 6390 nM

SMILES: CNc1nc2ccc(C(F)(F)F)cc2n2c(-c3ccc(O)c(O)c3)cnc12 [EAPB 02303-8a, 4-(4-(Methylamino)-8-(trifluoromethyl)imidazo[1,2-a]quinoxalin-1-yl)benzene-1,2-diol]
IC50 ([1]; Homo sapiens): > 10000 nM

SMILES: CNc1nc2ccc(OC(F)(F)F)cc2n2c(-c3ccc(O)c(O)c3)cnc12 [EAPB 02303-8b]
IC50 ([1]; Homo sapiens): > 10000 nM

SMILES: NCCNc1nc2ccccc2n2c(-c3ccc(O)c(O)c3)cnc12 [EAPB 02306, 4-(4-((2-Aminoethyl)amino)imidazo[1,2-a]quinoxalin-1-yl)benzene-1,2-diol]
IC50 ([1]; Homo sapiens): 1280 nM

SMILES: NCCNc1nc2ccccc2n2c(-c3ccc(O)c(O)c3)cnc12 [EAPB 02306s, 2-((1-(3,4-Dihydroxyphenyl)imidazo[1,2-a]quinoxalin-4-yl)amino)ethylammonium chloride]
IC50 [1]: 1700 nM

SMILES: NCCCCCCNc1nc2ccccc2n2c(-c3ccc(O)c(O)c3)cnc12 [EAPB 02307, 4-(4-((6-Aminohexyl)amino)imidazo[1,2-a]quinoxalin-1-yl)benzene-1,2-diol]
IC50 ([1]; Homo sapiens): 5690 nM

SMILES: NCCCNc1nc2ccccc2n2c(-c3ccc(O)c(O)c3)cnc12 [EAPB 02309, 4-(4-((3-Aminopropyl)amino)imidazo[1,2-a]quinoxalin-1-yl)benzene-1,2-diol]
IC50 ([1]; Homo sapiens): 5590 nM

SMILES: O=C(CNc1nc2ccccc2n2c(-c3ccc(O)c(O)c3)cnc12)NC(CO)(CO)CO [EAPB 02310]
IC50 ([1]; Homo sapiens): > 10000 nM

SMILES: CNc1nc2ccccc2n2ccnc12 [PED 26, N-Methylimidazo[1,2-a]quinoxalin-4-amine]
IC50 ([1]; Homo sapiens): > 10000 nM
